According to patent US8372831B2, “Isoxazoline linked pyrrolo[2,1-c][1,4]benzodiazepine hybrids as potential anticancer agents and the process for preparation thereof” (Council of Scientific & Industrial Research, priority 2008, dated 2013):

Test system: duplex-form calf thymus DNA (CT-DNA)
Assay: Thermal denaturation studies with calf thymus DNA
Type: binding
Settings: [PBD]:[DNA] molar ratio 1:5, CT-DNA 100 μM, ligand 20 μM, pH 7.00
Description: Compounds have been subjected to thermal denaturation studies with duplex-form calf thymus DNA (CT-DNA) using a modification of a reported procedure. Working solutions in aqueous buffer (10 mM NaH2PO4/Na2HPO4, 1 mM Na2EDTA, pH 7.00+0.01) containing CT-DNA (100 (μm in phosphate) and the PBD (20(μm) have been prepared by addition of concentrated PBD solutions in DMSO to obtain a fixed [PBD]/[DNA] molar ratio of 1:5. The DNA-PBD solutions have been incubated at 37° C. for 0 and 18 hrs prior to analysis. Samples have been monitored at 260 nm using a Beckman DU-800 spectrophotometer fitted with high performance temperature controller, and heated at 1° C. min^−1 in the 40-110° C. range. DNA helix→coil transition temperatures (Tm) have been obtained from the maxima in the d(A260)/d T derivative plots. Drug-induced alterations in DNA melting behavior are given by: ΔTm=Tm(DNA+PBD)−Tm(DNA alone), where the Tm value for the PBD-free CT-DNA is 68.5±0.01.
The DNA-binding for these novel C8-linked isoxazoline-PBD hybrids has been examined by thermal denaturation studies using calf thymus CT-DNA. […] Data for 5a-c, 9b and 9g and DC-81 are included in Table 4 for comparison.

SMILES	ΔTm after incubation at 37° C. for 0 hrs [°C]	ΔTm after incubation at 37° C. for 18 hrs [°C]
COc1cc(C2=NOC(c3cc(OC)c(OC)c(OC)c3)C2)ccc1OCCCOc1cc2c(cc1OC)C(=O)N1CCC[C@H]1C=N2 (stereo partly drawn) [Compound 5a, (11aS)-7-(methyloxy)-8-(3-[(2-(methyloxy)-4-5-[3,4,5-tri(methyloxy)phenyl]-4-,5-dihydro-3-isoxazolylphenyl)oxy]propyloxy)-2,3,5,11a-tetrahydro-1H benzo[e]pyrrolo[1,2-a][1,4]diazepi-5-one]	3.9	6.0
COc1cc(C2=NOC(c3cc(OC)c(OC)c(OC)c3)C2)ccc1OCCCCCOc1cc2c(cc1OC)C(=O)N1CCC[C@H]1C=N2 (stereo partly drawn) [Compound 5c, (11aS)-7-(methyloxy)-8-(5-[(2-(methyloxy)-4-5-[3,4,5-tri(methyloxy)phenyl]-4,5-dihydro-3-isoxazolylphenyl)oxy]pentyloxy)-2,3,5,11a-tetrahydro-1H benzo[e]pyrrolo[1,2-a][1,4]diazepi-5-one]	7.0	8
COc1cc2c(cc1OCCCCCOc1c(OC)cc(C3CC(c4ccc(OC)c(OC)c4OC)=NO3)cc1OC)N=C[C@@H]1CCCN1C2=O (stereo partly drawn) [Compound 9g, (11aS)-8-(5-[(2,6-di(methyloxy)-4-3-[2,3,4-tri(methyloxy)phenyl]-4,5-dihydro-5-isoxazolylphenyl)oxy]pentyloxy)-7-(methyloxy)-2,3,5,11a-tetrahydro-1H-benzo[e]pyrrolo[1,2-a][1,4]diazepin-5-one]	1.4	2.1
COc1cc2c(cc1O)N=CC1CCCN1C2=O (centres unmarked) [DC-81, reference compound]	0.3	0.7
